# Data: patent US12077503B2, “Substituted cyclic amides and their use as herbicides” (FMC CORPORATION, priority 2015, dated 2024)
# Legend:
# Format in all cases: in vivo
# Kochia (Kochia scoparia) [1] = assay: Test A preemergence; settings: for Kochia plant response rating (0 to 100 scale, 0 is no effect, 100 is complete control): visual injury approx. 10 d
# Method in brief: (§1)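 Each rating is a visual injury score from 0 to 100 given about 10 d after treatment, judged against untreated controls kept alongside in the greenhouse. In loam soil–sand blend, seeds got a preemergence directed soil spray, while postemergence plants were 2 to 10 cm tall at spraying.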
# [2] = test system: ragweed (common ragweed, Ambrosia elatior); assay: Test A preemergence; settings: for Ragweed plant response rating (0 to 100 scale, 0 is no effect, 100 is complete control): visual injury approx. 10 d
# Method in brief: as §1
# [3] = test system: barnyardgrass (Echinochloa crus-galli); assay: Test A preemergence; settings: for Barnyardgrass plant response rating (0 to 100 scale, 0 is no effect, 100 is complete control): visual injury approx. 10 d
# Method in brief: as §1
# [4] = test system: ryegrass, Italian (Italian ryegrass, Lolium multiflorum); assay: Test A preemergence; settings: for Ryegrass, Italian plant response rating (0 to 100 scale, 0 is no effect, 100 is complete control): visual injury approx. 10 d
# Method in brief: as §1
# [5] = test system: giant foxtail (Setaria faberii); assay: Test A preemergence; settings: for Foxtail, Giant plant response rating (0 to 100 scale, 0 is no effect, 100 is complete control): visual injury approx. 10 d
# Method in brief: as §1
# [6] = test system: pigweed (Amaranthus retroflexus); assay: Test A preemergence; settings: for Pigweed plant response rating (0 to 100 scale, 0 is no effect, 100 is complete control): visual injury approx. 10 d
# Kochia (Kochia scoparia) [7] = assay: Test A postemergence; settings: postemergence; for Kochia plant response rating: visual injury rating on 0 to 100 scale (0 no effect, 100 complete control)
# Method in brief: as §1
# [8] = test system: ragweed (common ragweed, Ambrosia elatior); assay: Test A postemergence; settings: postemergence; for Ragweed plant response rating: visual injury rating on 0 to 100 scale (0 no effect, 100 complete control)
# Method in brief: as §1
# [9] = test system: barnyardgrass (Echinochloa crus-galli); assay: Test A postemergence; settings: postemergence; for Barnyardgrass plant response rating: visual injury rating on 0 to 100 scale (0 no effect, 100 complete control)
# Method in brief: as §1
# [10] = test system: blackgrass (Alopecurus myosuroides); assay: Test A postemergence; settings: postemergence; for Blackgrass plant response rating: visual injury rating on 0 to 100 scale (0 no effect, 100 complete control)
# Method in brief: as §1
# [11] = test system: Galium (catchweed bedstraw, Galium aparine); assay: Test A postemergence; settings: postemergence; for Galium plant response rating: visual injury rating on 0 to 100 scale (0 no effect, 100 complete control)
# Method in brief: as §1
# corn (Zea mays) = assay: Test A postemergence; settings: postemergence; for Corn plant response rating: visual injury rating on 0 to 100 scale (0 no effect, 100 complete control)
# Method in brief: as §1
# [12] = test system: wheat (Triticum aestivum); assay: Test A postemergence; settings: postemergence; for Wheat plant response rating: visual injury rating on 0 to 100 scale (0 no effect, 100 complete control)
# Method in brief: as §1
# [13] = test system: ryegrass, Italian (Italian ryegrass, Lolium multiflorum); assay: Test A postemergence; settings: postemergence; for Ryegrass, Italian plant response rating: visual injury rating on 0 to 100 scale (0 no effect, 100 complete control)
# Method in brief: as §1
# [14] = test system: giant foxtail (Setaria faberii); assay: Test A postemergence; settings: postemergence; for Foxtail, Giant plant response rating: visual injury rating on 0 to 100 scale (0 no effect, 100 complete control)
# Method in brief: as §1
# [15] = test system: pigweed (Amaranthus retroflexus); assay: Test A postemergence; settings: postemergence; for Pigweed plant response rating: visual injury rating on 0 to 100 scale (0 no effect, 100 complete control)
# Method in brief: as §1
# [16] = test system: barnyardgrass (Echinochloa crus-galli); assay: Test B flooded paddy test; settings: Flood, 0 to 100 scale where 0 is no effect and 100 is complete control, 13 to 15 d
# Method in brief: (§2)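 Percent control, visually estimated after 13–15 d in the greenhouse on a 0–100 basis, compares treated pots with untreated ones; compound was put into paddy water 3 cm above the soil when plants had two leaves.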
# [17] = test system: sedge, umbrella (small-flower umbrella sedge, Cyperus difformis); assay: Test B flooded paddy test; settings: Flood, 0 to 100 scale where 0 is no effect and 100 is complete control, 13 to 15 d
# Method in brief: as §2
# [18] = test system: ducksalad (Heteranthera limosa); assay: Test B flooded paddy test; settings: Flood, 0 to 100 scale where 0 is no effect and 100 is complete control, 13 to 15 d
# Method in brief: as §2
# rice (Oryra sativa) = assay: Test B flooded paddy test; settings: Flood, 0 to 100 scale where 0 is no effect and 100 is complete control, 13 to 15 d
# Method in brief: as §2
# [19] = 125 g ai/ha, preemergence, 0 to 100 scale (0 no effect, 100 complete control)
# [20] = 500 g ai/ha, 0 to 100 scale, 0 no effect, 100 complete control
# [21] = 125 g ai/ha, Preemergence, visual injury after approximately 10 d, 0 to 100 scale where 0 is no effect and 100 is complete control
# [22] = 500 g ai/ha, preemergence, 0 to 100 scale, 0 = no effect, 100 = complete control
# [23] = 125 g ai/ha, visual rating after approx. 10 d, 0 to 100 scale (0 no effect, 100 complete control)
# [24] = 500 g ai/ha, visual injury, 0 to 100 scale (0 no effect, 100 complete control), approx. 10 d
smiles,measurement,setting,value
O=C1NCC(c2cccc(OC(F)F)c2)C1C(=O)Nc1cccc(OC(F)F)c1 (stereo not drawn) [Compound 422],"Plant response rating, Kochia",Kochia (Kochia scoparia) [1]; [19],0
same,"Kochia plant response rating (0 to 100 scale, 0 is no effect, 100 is complete control)","Kochia (Kochia scoparia) [1]; Preemergence, 500 g ai/ha",0
same,"Plant response rating, Ragweed",[2]; [19],0
same,"Ragweed plant response rating (0 to 100 scale, 0 is no effect, 100 is complete control)","[2]; Preemergence, 500 g ai/ha",0
same,"Plant response rating, Barnyardgrass",[3]; [19],40
same,"Barnyardgrass plant response rating (0 to 100 scale, 0 is no effect, 100 is complete control)","[3]; Preemergence, 500 g ai/ha",70
same,"Plant response rating, Ryegrass, Italian",[4]; [19],0
same,"Ryegrass, Italian plant response rating (0 to 100 scale, 0 is no effect, 100 is complete control)","[4]; Preemergence, 500 g ai/ha",0
same,"Plant response rating, Foxtail, Giant",[5]; [19],60
same,"Foxtail, Giant plant response rating (0 to 100 scale, 0 is no effect, 100 is complete control)","[5]; Preemergence, 500 g ai/ha",70
same,"Plant response rating, Pigweed",[6]; [19],20
same,"Pigweed plant response rating (0 to 100 scale, 0 is no effect, 100 is complete control)","[6]; Preemergence, 500 g ai/ha",30
same,Kochia plant response rating,"Kochia (Kochia scoparia) [7]; 125 g ai/ha, approx. 10 d",50
same,"Plant response rating, Kochia",Kochia (Kochia scoparia) [7]; [20],60
same,Ragweed plant response rating,"[8]; 125 g ai/ha, approx. 10 d",0
same,"Plant response rating, Ragweed",[8]; [20],0
same,Barnyardgrass plant response rating,"[9]; 125 g ai/ha, approx. 10 d",50
same,"Plant response rating, Barnyardgrass",[9]; [20],60
same,Blackgrass plant response rating,"[10]; 125 g ai/ha, approx. 10 d",30
same,"Plant response rating, Blackgrass",[10]; [20],50
same,Galium plant response rating,"[11]; 125 g ai/ha, approx. 10 d",30
same,"Plant response rating, Galium",[11]; [20],70
same,Corn plant response rating,"corn (Zea mays); 125 g ai/ha, approx. 10 d",0
same,"Plant response rating, Corn",corn (Zea mays); [20],0
same,Wheat plant response rating,"[12]; 125 g ai/ha, approx. 10 d",0
same,"Plant response rating, Wheat",[12]; [20],0
same,"Ryegrass, Italian plant response rating","[13]; 125 g ai/ha, approx. 10 d",0
same,"Plant response rating, Ryegrass, Italian",[13]; [20],0
same,"Foxtail, Giant plant response rating","[14]; 125 g ai/ha, approx. 10 d",50
same,"Plant response rating, Foxtail, Giant",[14]; [20],60
same,Pigweed plant response rating,"[15]; 125 g ai/ha, approx. 10 d",40
same,"Plant response rating, Pigweed",[15]; [20],60
same,"Plant response rating, Barnyardgrass",[16]; 500 g ai/ha,0
same,"Plant response rating, Sedge, Umbrella",[17]; 500 g ai/ha,0
same,"Plant response rating, Ducksalad",[18]; 500 g ai/ha,50
same,"Plant response rating, Rice",rice (Oryra sativa); 500 g ai/ha,0
CS(=O)(=O)c1ccccc1NC(=O)C1C(=O)NCC1c1ccc(Br)cc1 (stereo not drawn) [Compound 452],"Plant response rating, Kochia",Kochia (Kochia scoparia) [1]; [19],60
same,"Kochia plant response rating (0 to 100 scale, 0 is no effect, 100 is complete control)","Kochia (Kochia scoparia) [1]; Preemergence, 500 g ai/ha",70
same,"Plant response rating, Ragweed",[2]; [19],20
same,"Ragweed plant response rating (0 to 100 scale, 0 is no effect, 100 is complete control)","[2]; Preemergence, 500 g ai/ha",60
same,"Plant response rating, Barnyardgrass",[3]; [19],60
same,"Barnyardgrass plant response rating (0 to 100 scale, 0 is no effect, 100 is complete control)","[3]; Preemergence, 500 g ai/ha",90
same,"Plant response rating, Ryegrass, Italian",[4]; [19],0
same,"Ryegrass, Italian plant response rating (0 to 100 scale, 0 is no effect, 100 is complete control)","[4]; Preemergence, 500 g ai/ha",30
same,"Plant response rating, Foxtail, Giant",[5]; [19],90
same,"Foxtail, Giant plant response rating (0 to 100 scale, 0 is no effect, 100 is complete control)","[5]; Preemergence, 500 g ai/ha",90
same,"Plant response rating, Pigweed",[6]; [19],80
same,"Pigweed plant response rating (0 to 100 scale, 0 is no effect, 100 is complete control)","[6]; Preemergence, 500 g ai/ha",90
same,Kochia plant response rating,"Kochia (Kochia scoparia) [7]; 125 g ai/ha, approx. 10 d",50
same,"Plant response rating, Kochia",Kochia (Kochia scoparia) [7]; [20],70
same,Ragweed plant response rating,"[8]; 125 g ai/ha, approx. 10 d",0
same,"Plant response rating, Ragweed",[8]; [20],30
same,Barnyardgrass plant response rating,"[9]; 125 g ai/ha, approx. 10 d",20
same,"Plant response rating, Barnyardgrass",[9]; [20],70
same,Blackgrass plant response rating,"[10]; 125 g ai/ha, approx. 10 d",0
same,"Plant response rating, Blackgrass",[10]; [20],60
same,Galium plant response rating,"[11]; 125 g ai/ha, approx. 10 d",50
same,"Plant response rating, Galium",[11]; [20],50
same,Corn plant response rating,"corn (Zea mays); 125 g ai/ha, approx. 10 d",0
same,"Plant response rating, Corn",corn (Zea mays); [20],0
same,Wheat plant response rating,"[12]; 125 g ai/ha, approx. 10 d",0
same,"Plant response rating, Wheat",[12]; [20],20
same,"Ryegrass, Italian plant response rating","[13]; 125 g ai/ha, approx. 10 d",0
same,"Plant response rating, Ryegrass, Italian",[13]; [20],20
same,"Foxtail, Giant plant response rating","[14]; 125 g ai/ha, approx. 10 d",60
same,"Plant response rating, Foxtail, Giant",[14]; [20],80
same,Pigweed plant response rating,"[15]; 125 g ai/ha, approx. 10 d",50
same,"Plant response rating, Pigweed",[15]; [20],70
same,"Plant response rating, Barnyardgrass",[16]; 250 g ai/ha,0
same,"Plant response rating, Sedge, Umbrella",[17]; 250 g ai/ha,0
same,"Plant response rating, Ducksalad",[18]; 250 g ai/ha,100
same,"Plant response rating, Rice",rice (Oryra sativa); 250 g ai/ha,0
CN1CC(c2cc(F)cc(F)c2)C(C(=O)Nc2cccc3c2CCCC3)C1=O (stereo not drawn) [Compound 660],"Plant response rating, Kochia",Kochia (Kochia scoparia) [1]; [21],0
same,"Plant response rating, Kochia",Kochia (Kochia scoparia) [1]; [22],0
same,"Plant response rating, Ragweed",[2]; [21],0
same,"Plant response rating, Ragweed",[2]; [22],0
same,"Plant response rating, Barnyardgrass",[3]; [21],60
same,"Plant response rating, Barnyardgrass",[3]; [22],90
same,"Plant response rating, Ryegrass, Italian",[4]; [21],0
same,"Plant response rating, Ryegrass, Italian",[4]; [22],20
same,"Plant response rating, Foxtail, Giant",[5]; [21],80
same,"Plant response rating, Foxtail, Giant",[5]; [22],90
same,"Plant response rating, Pigweed",[6]; [21],0
same,"Plant response rating, Pigweed",[6]; [22],0
same,"Plant response rating, Kochia",Kochia (Kochia scoparia) [7]; [23],0
same,"Plant response rating, Kochia",Kochia (Kochia scoparia) [7]; [24],0
same,"Plant response rating, Ragweed",[8]; [23],0
same,"Plant response rating, Ragweed",[8]; [24],0
same,"Plant response rating, Barnyardgrass",[9]; [23],50
same,"Plant response rating, Barnyardgrass",[9]; [24],80
same,"Plant response rating, Blackgrass",[10]; [23],0
same,"Plant response rating, Blackgrass",[10]; [24],40
same,"Plant response rating, Galium",[11]; [23],0
same,"Plant response rating, Galium",[11]; [24],0
same,"Plant response rating, Corn",corn (Zea mays); [23],0
same,"Plant response rating, Corn",corn (Zea mays); [24],0
same,"Plant response rating, Wheat",[12]; [23],0
same,"Plant response rating, Wheat",[12]; [24],0
same,"Plant response rating, Ryegrass, Italian",[13]; [23],0
same,"Plant response rating, Ryegrass, Italian",[13]; [24],0
same,"Plant response rating, Foxtail, Giant",[14]; [23],80
same,"Plant response rating, Foxtail, Giant",[14]; [24],90
same,"Plant response rating, Pigweed",[15]; [23],0
same,"Plant response rating, Pigweed",[15]; [24],0
same,"Plant response rating, Barnyardgrass",[16]; 250 g ai/ha,45
same,"Plant response rating, Sedge, Umbrella",[17]; 250 g ai/ha,0
same,"Plant response rating, Ducksalad",[18]; 250 g ai/ha,60
same,"Plant response rating, Rice",rice (Oryra sativa); 250 g ai/ha,15
